# Experimental data reported in patent publication US12473294B2, “Selective modulators of mutant LRRK2 proteolysis and associated methods of use” (Arvinas Operations, Inc., priority 2020, dated 2025).
# Tests used:
# G2019S LRRK2 = target: T1, G2019S LRRK2 (Homo sapiens, UniProt Q5S007, G2019S); experiment: LRRK2 degradation HiBit assay, G2019S LRRK2 tagged with a HiBit tag expressed in HEK293 cells; assay type: cell-based; details: 24 hours compound incubation; for Dmax: HEK293, HEK293 cells
# T1 construct: expressed in transfected cells; host or cells: HEK293 (ATCC CRL-1573)
# T1 sequence (Q5S007 whole entry G2019S): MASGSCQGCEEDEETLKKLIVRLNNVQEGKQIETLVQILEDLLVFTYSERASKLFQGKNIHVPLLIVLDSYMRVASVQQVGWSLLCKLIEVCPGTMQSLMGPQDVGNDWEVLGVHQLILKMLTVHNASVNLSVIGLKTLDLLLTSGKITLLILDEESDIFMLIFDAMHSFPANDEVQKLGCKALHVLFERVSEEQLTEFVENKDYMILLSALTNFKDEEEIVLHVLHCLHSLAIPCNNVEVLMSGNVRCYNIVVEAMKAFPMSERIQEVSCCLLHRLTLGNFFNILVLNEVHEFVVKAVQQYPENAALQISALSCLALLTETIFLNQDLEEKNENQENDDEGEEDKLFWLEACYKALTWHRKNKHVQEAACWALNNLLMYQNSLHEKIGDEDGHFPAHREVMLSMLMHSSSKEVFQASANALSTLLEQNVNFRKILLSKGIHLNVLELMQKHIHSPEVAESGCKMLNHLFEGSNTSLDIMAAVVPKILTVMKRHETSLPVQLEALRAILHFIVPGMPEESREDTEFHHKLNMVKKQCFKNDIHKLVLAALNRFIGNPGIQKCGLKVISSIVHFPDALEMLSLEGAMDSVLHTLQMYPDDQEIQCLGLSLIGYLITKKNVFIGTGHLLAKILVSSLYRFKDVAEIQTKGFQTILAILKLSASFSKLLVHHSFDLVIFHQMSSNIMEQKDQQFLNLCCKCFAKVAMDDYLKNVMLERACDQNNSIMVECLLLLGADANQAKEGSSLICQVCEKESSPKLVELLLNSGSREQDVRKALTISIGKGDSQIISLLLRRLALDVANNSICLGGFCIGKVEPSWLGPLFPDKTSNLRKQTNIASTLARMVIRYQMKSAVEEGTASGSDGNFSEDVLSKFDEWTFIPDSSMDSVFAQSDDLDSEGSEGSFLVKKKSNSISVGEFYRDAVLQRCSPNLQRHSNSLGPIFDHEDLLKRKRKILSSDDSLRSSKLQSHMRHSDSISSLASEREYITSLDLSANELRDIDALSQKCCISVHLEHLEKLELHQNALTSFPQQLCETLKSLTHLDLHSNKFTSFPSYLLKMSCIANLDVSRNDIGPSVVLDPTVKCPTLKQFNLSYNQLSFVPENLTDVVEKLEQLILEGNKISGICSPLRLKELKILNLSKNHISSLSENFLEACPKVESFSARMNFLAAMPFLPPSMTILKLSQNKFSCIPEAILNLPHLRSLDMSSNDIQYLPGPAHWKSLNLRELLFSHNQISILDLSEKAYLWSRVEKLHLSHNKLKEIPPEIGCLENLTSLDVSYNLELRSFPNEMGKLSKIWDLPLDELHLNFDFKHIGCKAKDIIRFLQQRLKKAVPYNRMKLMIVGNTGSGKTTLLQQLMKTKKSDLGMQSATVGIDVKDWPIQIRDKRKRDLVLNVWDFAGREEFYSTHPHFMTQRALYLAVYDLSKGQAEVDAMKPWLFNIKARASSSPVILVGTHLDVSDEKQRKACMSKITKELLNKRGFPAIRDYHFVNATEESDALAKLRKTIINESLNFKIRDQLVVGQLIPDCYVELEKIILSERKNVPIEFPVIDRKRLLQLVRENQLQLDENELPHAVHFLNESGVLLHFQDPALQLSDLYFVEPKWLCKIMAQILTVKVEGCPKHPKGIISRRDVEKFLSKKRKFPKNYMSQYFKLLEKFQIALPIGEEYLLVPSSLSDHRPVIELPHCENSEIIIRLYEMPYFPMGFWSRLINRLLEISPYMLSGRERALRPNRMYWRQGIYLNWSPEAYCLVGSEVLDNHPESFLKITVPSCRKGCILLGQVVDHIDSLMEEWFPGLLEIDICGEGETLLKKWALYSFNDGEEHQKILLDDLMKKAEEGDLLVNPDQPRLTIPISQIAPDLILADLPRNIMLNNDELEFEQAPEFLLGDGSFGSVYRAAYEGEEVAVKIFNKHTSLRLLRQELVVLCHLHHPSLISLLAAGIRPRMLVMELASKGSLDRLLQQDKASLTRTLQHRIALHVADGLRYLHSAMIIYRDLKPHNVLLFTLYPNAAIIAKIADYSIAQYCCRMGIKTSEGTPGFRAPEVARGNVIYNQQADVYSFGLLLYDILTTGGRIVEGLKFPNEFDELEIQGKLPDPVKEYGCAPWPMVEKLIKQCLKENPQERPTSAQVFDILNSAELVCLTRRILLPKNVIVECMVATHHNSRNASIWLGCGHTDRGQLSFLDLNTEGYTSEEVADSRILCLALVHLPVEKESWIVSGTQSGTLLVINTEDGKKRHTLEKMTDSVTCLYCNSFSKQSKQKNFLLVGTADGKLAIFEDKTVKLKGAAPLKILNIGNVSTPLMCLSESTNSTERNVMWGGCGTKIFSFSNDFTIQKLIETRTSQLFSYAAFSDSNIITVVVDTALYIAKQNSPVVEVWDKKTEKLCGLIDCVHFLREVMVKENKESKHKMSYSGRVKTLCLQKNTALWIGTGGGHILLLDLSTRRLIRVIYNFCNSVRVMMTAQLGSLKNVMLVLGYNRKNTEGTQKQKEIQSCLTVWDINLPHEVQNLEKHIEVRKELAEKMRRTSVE
# Method: (§1) The assay measures the degradation of wildtype and G2019S LRRK2 tagged with a HiBit tag on the C-terminus of the protein that was expressed from a mammalian expression vector, driven by the ubiquitin promoter in HEK293 cells. Each compound dose-response was repeated on three separate days, on three separate plates each day.
# (§2) Plasmid Preparation. Transfection mixes were assembled as follows and incubated for 30 minutes at room temperature. In a 15 mL tube, 5.25 mL Opti-MEM (no additions) was mixed with 17 μL Firefly Luciferase plasmid at 1 μg/μL and 158 μL WT plasmid DNA at 1 μg/μL (175 μg total DNA) were mixed by flicking. In a new 15 mL tube, 5.25 mL OptiMEM was mixed with 17 μL Firefly Luciferase plasmid at 1 μg/μL and 158 μL G2019S plasmid DNA at 1 μg/μL (175 μg total DNA) were mixed by flicking. X-tremeGene HP was mixed thoroughly using a vortex. Next, 175 μL was added to each tube and flicked to mix. Both tubes were left to incubate for 30 minutes at room temperature.
# While the transfection mixes were incubating, HEK293 cells acquired from ATCC (ATCC CRL-1573) were harvested with trypsin. Once cells are detached, the cells were resuspended in 12 mL OptiMEM+5% FBS and transferred to a 50 mL tube. The cells were mixed well and counted. Using OptiMEM+5% FBS, the cells were diluted in two 250 mL conical tubes at 0.71×10^6 cells/mL in 70 mL. One tube was labeled “WT” and the other “G2019S”. The WT and G2019S transfection mixes were added dropwise to the corresponding 250 mL tubes. The tubes were mixed first by pipetting then by swirling. The tubes were incubated at room temperature for at least 5 minutes.
# (§3) Each tube was swirled before dispensing and after every three plates. Seventy microliters of cells were dispensed with WT or G2019S DNA to seven plates each. Three plates of each were tested with compound plate one (preparation described below) and three plates of each were tested with compound plate two (preparation described below). The first plate from each set served as a “prime” plate and was not used to test compounds. Each plate was incubated in the hood for 10 minutes before placing in the 37° C. incubator for 24 hours.
# (§4) Preparation of Compound and Assay Plates. Two compound plates were made using 96 well polypropylene plates. Compounds were made up at 10 mM and were diluted to 1 mM in 30 μL. Each dose response curve included a well of DMSO, as a negative control and for normalization, and a well of 0.5 μM of Exemplary Compound 4 as a positive control. In addition to seven test compounds, each plate also included a dose response of Exemplary Compound 4. The compound plates were spun down along at 1200 rpm for 2 minutes.
# (§5) The two compound plates were then mixed and 2 μL was diluted in intermediate plates having 248 μL of Opti-Mem in each well. Next, 10 μL diluted compounds from the intermediate plates were added to each test plate (three WT and three G2019S plates per compound plate for a total of 12 assay plates). The plates were incubated for 24 hours at 37° C.
# (§6) All assay plates and all Nano-Glo Dual-Luciferase Reporter Assay System components (except for the DLR substrate) were equilibrated to room temperature. Next, the luciferase buffer was mixed with the lyophilized amber bottle until fully dissolved, and 75 μL of the luciferase mixture was added to each well of each assay plate. The assay plates were incubated for 10 minutes at room temperature with shaking for at least 5 minutes, and then read on a plate reader.
# (§7) Developing Plates and Analyzing Data. One milliliter of DLR substrate and 1 mL LgBiT Protein were added to the Stop and Glo buffer, and 75 μL of the mixture was added to each well of each plate. Optically clear seals were added to each plate and each plate was incubated for 20 minutes with shaking for at least 10 minutes, and then read on a plate reader. […]
# wildtype LRRK2 = target: T2, wildtype LRRK2 (Homo sapiens, UniProt Q5S007); experiment: LRRK2 degradation HiBit assay, wildtype LRRK2 tagged with a HiBit tag in HEK293 cells; assay type: cell-based; details: 24 hours compound incubation; for DC50: read-out: *WT DC50; for Dmax: read-out: ** WT Dmax (%)
# T2 construct: endogenous in cells; host or cells: HEK293 with HiBit knocked in at the 3' end of the endogenous LRRK2 gene, stably expressing firefly luciferase
# T2 sequence (Q5S007 whole entry): as the sequence (Q5S007 whole entry G2019S) above, with S2019G counted along it
# Method: as §1, with “repeated on two separate days,” for “repeated on three separate days,”
# as §2
# While the transfection mixes were incubating, HEK293 cells (acquired from ATCC; ATCC CRL-1573) were harvested with trypsin. Once cells are detached, the cells were resuspended in 12 mL OptiMEM+5% FBS and transferred to a 50 mL tube. The cells were mixed well and counted. Using OptiMEM+5% FBS, the cells were diluted in two 250 mL conical tubes at 0.71×10^6 cells/mL in 70 mL. One tube was labeled “WT” and the other “G2019S”. The WT and G2019S transfection mixes were added dropwise to the corresponding 250 mL tubes. The tubes were mixed first by pipetting then by swirling. The tubes were incubated at room temperature for at least 5 minutes.
# as §3, §4, §5, §6, §7
Structure (SMILES),DC50 (G2019S LRRK2; HEK293 cells) [nM],DC50 (wildtype LRRK2) [nM],Dmax (G2019S LRRK2) [%],Dmax (wildtype LRRK2) [%],**G2019S Dmax (%) (G2019S LRRK2; HEK293 cells)
"CC1=C(C(=O)Nc2ccc3[nH]nc(-c4ccnc(N5C[C@@H](C)N(CCOCCN6CCN(c7ccc8c(c7)C(=O)N(C7CCC(=O)NC7=O)C8=O)CC6)[C@@H](C)C5)c4)c3c2)Cn2nnnc2N1C (stereo partly drawn) [compound 3, N-(3-(2-((3R,5S)-4-(2-(2-(4-(2-(2,6-dioxopiperidin-3-yl)-1,3-dioxoisoindolin-5-yl)piperazin-1-yl)ethoxy)ethyl)-3,5-dimethylpiperazin-1-yl)pyridin-4-yl)-1H-indazol-5-yl)-4,5-dimethyl-4,7-dihydrotetrazolo[1,5-a]pyrimidine-6-carboxamide]",≥ 100,≥ 100,–,–,–
"CC1=C(C(=O)Nc2ccc3[nH]nc(-c4ccnc(N5CCN(CCN6CCN(CC7CCN(c8ccc9c(c8)C(=O)N(C8CCC(=O)NC8=O)C9=O)CC7)CC6)[C@@H](C)C5)c4)c3c2)C(C)(C)n2nnnc2N1C (stereo partly drawn) [compound 30, N-(3-{2-[(3S)-4-{2-[4-({1-[2-(2,6-dioxopiperidin-3-yl)-1,3-dioxo-2,3-dihydro-1H-isoindol-5-yl]piperidin-4-yl}methyl)piperazin-1-yl]ethyl}-3-methylpiperazin-1-yl]pyridin-4-yl}-1H-indazol-5-yl)-4,5,7,7-tetramethyl-4H,7H-[1,2,3,4]tetrazolo[1,5-a]pyrimidine-6-carboxamide]",10 to 50,≥ 100,< 50,< 50,–
"CC1=C(C(=O)Nc2ccc3[nH]nc(-c4ccnc(N5CCN(CCN6CCN(CC7CCN(c8ccc9c(c8)C(=O)N(C8CCC(=O)NC8=O)C9=O)CC7)CC6)CC5)c4)c3c2)[C@@H](C)n2nnnc2N1C (stereo partly drawn) [compound 25, (7R)-N-{3-[2-(4-{2-[4-({1-[2-(2,6-dioxopiperidin-3-yl)-1,3-dioxo-2,3-dihydro-1H-isoindol-5-yl]piperidin-4-yl}methyl)piperazin-1-yl]ethyl}piperazin-1-yl)pyridin-4-yl]-1H-indazol-5-yl}-4,5,7-trimethyl-4H,7H-[1,2,3,4]tetrazolo[1,5-a]pyrimidine-6-carboxamide]",10 to 50,50 to 100,–,≥ 70,A (A ≥ 70)
"CC1=C(C(=O)Nc2ccc3[nH]nc(-c4ccnc(N5CCN(CC6CN(CC7CCN(c8ccc9c(c8)C(=O)N(C8CCC(=O)NC8=O)C9=O)CC7)C6)CC5)c4)c3c2)[C@@H](C)n2nnnc2N1C (stereo partly drawn) [compound 17, (7R)-N-(3-(2-(4-((1-((1-(2-(2,6-dioxopiperidin-3-yl)-1,3-dioxoisoindolin-5-yl)piperidin-4-yl)methyl)azetidin-3-yl)methyl)piperazin-1-yl)pyridin-4-yl)-1H-indazol-5-yl)-4,5,7-trimethyl-4,7-dihydrotetrazolo[1,5-a]pyrimidine-6-carboxamide]",50 to 100,≥ 100,50 to 70,50 to 70,–
"CC1=C(C(=O)Nc2ccc3[nH]nc(-c4ccnc(N5CCO[C@@H](CN6CCN(CC7CCN(c8ccc9c(c8)C(=O)N(C8CCC(=O)NC8=O)C9=O)CC7)CC6)C5)c4)c3c2)C(C)(C)n2nnnc2N1C (stereo partly drawn) [compound 32, N-(3-{2-[(2S)-2-{[4-({1-[2-(2,6-dioxopiperidin-3-yl)-1,3-dioxo-2,3-dihydro-1H-isoindol-5-yl]piperidin-4-yl}methyl)piperazin-1-yl]methyl}morpholin-4-yl]pyridin-4-yl}-1H-indazol-5-yl)-4,5,7,7-tetramethyl-4H,7H-[1,2,3,4]tetrazolo[1,5-a]pyrimidine-6-carboxamide]",10 to 50,≥ 100,< 50,–,–
"CC1=C(C(=O)Nc2ccc3[nH]nc(-c4ccnc(N5CCN(CCN6CCN(CC7CCN(c8ccc9c(c8)C(=O)N(C8CCC(=O)NC8=O)C9=O)CC7)CC6)[C@@H](C)C5)c4)c3c2)[C@H](C)n2nnnc2N1C (stereo partly drawn) [compound 28, (7S)-N-(3-{2-[(3S)-4-{2-[4-({1-[2-(2,6-dioxopiperidin-3-yl)-1,3-dioxo-2,3-dihydro-1H-isoindol-5-yl]piperidin-4-yl}methyl)piperazin-1-yl]ethyl}-3-methylpiperazin-1-yl]pyridin-4-yl}-1H-indazol-5-yl)-4,5,7-trimethyl-4H,7H-[1,2,3,4]tetrazolo[1,5-a]pyrimidine-6-carboxamide]",≥ 100,≥ 100,50 to 70,–,–
"CC1=C(C(=O)Nc2ccc3[nH]nc(-c4ccnc(N5C[C@@H](C)N(CCN6CCN(c7ccc8c(c7)C(=O)N(C7CCC(=O)NC7=O)C8=O)CC6)[C@@H](C)C5)c4)c3c2)Cn2nnnc2N1C (stereo partly drawn) [compound 5, N-(3-(2-((3R,5S)-4-(2-(4-(2-(2,6-dioxopiperidin-3-yl)-1,3-dioxoisoindolin-5-yl)piperazin-1-yl)ethyl)-3,5-dimethylpiperazin-1-yl)pyridin-4-yl)-1H-indazol-5-yl)-4,5-dimethyl-4,7-dihydrotetrazolo[1,5-a]pyrimidine-6-carboxamide]",≥ 100,≥ 100,< 50,–,–
"CC1=C(C(=O)Nc2ccc3[nH]nc(-c4ccnc(N5CCN(CC6CCN(CC7CCN(c8ccc9c(c8)C(=O)N(C8CCC(=O)NC8=O)C9=O)CC7)CC6)CC5)c4)c3c2)C(C)(C)n2nnnc2N1C (stereo not shown) [compound 29, N-{3-[2-(4-{[1-({1-[2-(2,6-dioxopiperidin-3-yl)-1,3-dioxo-2,3-dihydro-1H-isoindol-5-yl]piperidin-4-yl}methyl)piperidin-4-yl]methyl}piperazin-1-yl)pyridin-4-yl]-1H-indazol-5-yl}-4,5,7,7-tetramethyl-4H,7H-[1,2,3,4]tetrazolo[1,5-a]pyrimidine-6-carboxamide]",10 to 50,≥ 100,< 50,< 50,–
"CC1=C(C(=O)Nc2ccc3[nH]nc(-c4ccnc(N5CCN(CCN6CCC(CN7CCN(c8ccc9c(c8)C(=O)N(C8CCC(=O)NC8=O)C9=O)CC7)CC6)CC5)c4)c3c2)C(C)(C)n2nnnc2N1C (stereo not shown) [compound 33, N-{3-[2-(4-{2-[4-({4-[2-(2,6-dioxopiperidin-3-yl)-1,3-dioxo-2,3-dihydro-1H-isoindol-5-yl]piperazin-1-yl}methyl)piperidin-1-yl]ethyl}piperazin-1-yl)pyridin-4-yl]-1H-indazol-5-yl}-4,5,7,7-tetramethyl-4H,7H-[1,2,3,4]tetrazolo[1,5-a]pyrimidine-6-carboxamide]",≥ 100,≥ 100,< 50,< 50,–
